# Measurements published in ChEMBL document CHEMBL1201862, “PubChem BioAssay data set” (2004).
#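 All cell lines were grown in 96-well plates and treated with compound for 48 hours. GI50 marks 50% less growth.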 Calls of active or inactive are those of the source. Cut-off read from the data, not from the text of the source: active = GI50 up to about 1.1 µM and inactive = higher.
# How the values were obtained:
# Experiment in all cases: DTP human tumour cell line panel, 48 h
# [1] = tested on: 786-0
# [2] = tested on: A498
# [3] = tested on: A549
# [4] = tested on: ACHN
# [5] = tested on: CAKI-1
# [6] = tested on: CCRF-CEM
# [7] = tested on: COLO 205
# [8] = tested on: DU-145
# [9] = tested on: EKVX
# [10] = tested on: HCC 2998
# [11] = tested on: HCT-116
# [12] = tested on: HCT-15
# [13] = tested on: HL-60
# [14] = tested on: HOP-62
# [15] = tested on: HOP-92
# [16] = tested on: HT-29
# [17] = tested on: Hs-578T
# [18] = tested on: IGROV-1
# [19] = tested on: K562
# [20] = tested on: KM12
# [21] = tested on: LOX IMVI
# [22] = tested on: M14
# [23] = tested on: MCF7
# [24] = tested on: MDA-MB-231
# [25] = tested on: MDA-MB-435
# [26] = tested on: MDA-N
# [27] = tested on: MOLT-4
# [28] = tested on: Malme-3M
# [29] = tested on: NCI-H226
# [30] = tested on: NCI-H23
# [31] = tested on: NCI-H460
# [32] = tested on: NCI-H522
# [33] = tested on: NCI/ADR-RES
# [34] = tested on: OVCAR-3
# [35] = tested on: OVCAR-4
# [36] = tested on: OVCAR-5
# [37] = tested on: OVCAR-8
# [38] = tested on: PC-3
# [39] = tested on: RPMI-8226
# [40] = tested on: RXF 393
# [41] = tested on: SF-268
# [42] = tested on: SF-295
# [43] = tested on: SF-539
# [44] = tested on: SK-MEL-28
# [45] = tested on: SK-MEL-2
# [46] = tested on: SK-MEL-5
# [47] = tested on: SK-OV-3
# [48] = tested on: SN12C
# [49] = tested on: SNB-19
# [50] = tested on: SNB-75
# [51] = tested on: SR
# [52] = tested on: SW-620
# [53] = tested on: T47D
# [54] = tested on: TK-10
# [55] = tested on: U-251
# [56] = tested on: UACC-257
# [57] = tested on: UO-31
smiles,measurement,setting,value
Cc1ccc(S(=O)(=O)N/C(=C\C=C\c2ccccc2)C(=O)C(C)(C)C)cc1,GI50,[1],27.5 µM (inactive)
same,GI50,[2],89.5 µM (inactive)
same,GI50,[3],46.5 µM (inactive)
same,GI50,[4],58.5 µM (inactive)
same,GI50,[5],> 100 µM (inactive)
same,GI50,[6],> 100 µM (inactive)
same,GI50,[7],> 100 µM (inactive)
same,GI50,[8],> 100 µM (inactive)
same,GI50,[9],> 100 µM (inactive)
same,GI50,[10],> 100 µM (inactive)
same,GI50,[11],> 100 µM (inactive)
same,GI50,[12],> 100 µM
same,GI50,[13],> 100 µM (inactive)
same,GI50,[14],19.5 µM (inactive)
same,GI50,[15],22.7 µM (inactive)
same,GI50,[16],> 100 µM (inactive)
same,GI50,[17],35.1 µM (inactive)
same,GI50,[18],50.5 µM (inactive)
same,GI50,[19],> 100 µM (inactive)
same,GI50,[20],> 100 µM (inactive)
same,GI50,[21],> 100 µM (inactive)
same,GI50,[22],> 100 µM (inactive)
same,GI50,[23],73.1 µM (inactive)
same,GI50,[24],29.9 µM (inactive)
same,GI50,[25],> 100 µM (inactive)
same,GI50,[26],> 100 µM (inactive)
same,GI50,[27],> 100 µM (inactive)
same,GI50,[28],> 100 µM (inactive)
same,GI50,[29],> 100 µM (inactive)
same,GI50,[30],59.4 µM (inactive)
same,GI50,[31],> 100 µM (inactive)
same,GI50,[32],59 µM (inactive)
same,GI50,[33],42.3 µM (inactive)
same,GI50,[34],> 100 µM (inactive)
same,GI50,[35],35.2 µM (inactive)
same,GI50,[36],> 100 µM (inactive)
same,GI50,[37],51.4 µM (inactive)
same,GI50,[38],75.2 µM (inactive)
same,GI50,[39],0.492 µM (active)
same,GI50,[40],37.8 µM (inactive)
same,GI50,[41],46.2 µM (inactive)
same,GI50,[42],75 µM (inactive)
same,GI50,[43],37.9 µM (inactive)
same,GI50,[44],> 100 µM (inactive)
same,GI50,[45],> 100 µM (inactive)
same,GI50,[46],56 µM (inactive)
same,GI50,[47],38.6 µM (inactive)
same,GI50,[48],> 100 µM (inactive)
same,GI50,[49],55.5 µM (inactive)
same,GI50,[50],56.2 µM (inactive)
same,GI50,[51],> 100 µM (inactive)
same,GI50,[52],> 100 µM (inactive)
same,GI50,[53],85.1 µM (inactive)
same,GI50,[54],> 100 µM (inactive)
same,GI50,[55],63.1 µM (inactive)
same,GI50,[56],45.5 µM (inactive)
same,GI50,[57],> 100 µM (inactive)
O=C1c2cc3c(cc2CC12Cc1ccccc1C2)CCC3,GI50,[1],21.1 µM (inactive)
same,GI50,[2],34.4 µM (inactive)
same,GI50,[3],44.4 µM (inactive)
same,GI50,[4],27.8 µM (inactive)
same,GI50,[5],15.5 µM (inactive)
same,GI50,[6],30.5 µM (inactive)
same,GI50,[7],18.6 µM (inactive)
same,GI50,[8],52 µM (inactive)
same,GI50,[9],29.9 µM (inactive)
same,GI50,[10],31 µM (inactive)
same,GI50,[11],22.2 µM (inactive)
same,GI50,[12],33.9 µM
same,GI50,[13],25.5 µM (inactive)
same,GI50,[14],27.8 µM (inactive)
same,GI50,[15],23.9 µM (inactive)
same,GI50,[16],21.5 µM (inactive)
same,GI50,[17],31.6 µM (inactive)
same,GI50,[18],38.2 µM (inactive)
same,GI50,[19],44.3 µM (inactive)
same,GI50,[20],24.9 µM (inactive)
same,GI50,[21],18.6 µM (inactive)
same,GI50,[22],23.2 µM (inactive)
same,GI50,[23],18.8 µM (inactive)
same,GI50,[24],23.6 µM (inactive)
same,GI50,[25],28.2 µM (inactive)
same,GI50,[26],27.3 µM (inactive)
same,GI50,[27],19.9 µM (inactive)
same,GI50,[28],28.1 µM (inactive)
same,GI50,[29],23.4 µM (inactive)
same,GI50,[30],50.5 µM (inactive)
same,GI50,[31],25.8 µM (inactive)
same,GI50,[32],27.4 µM (inactive)
same,GI50,[33],28.4 µM (inactive)
same,GI50,[34],41.8 µM (inactive)
same,GI50,[35],50.2 µM (inactive)
same,GI50,[36],52.6 µM (inactive)
same,GI50,[37],21.2 µM (inactive)
same,GI50,[38],34 µM (inactive)
same,GI50,[39],21.9 µM (inactive)
same,GI50,[40],22.1 µM (inactive)
same,GI50,[41],34.8 µM (inactive)
same,GI50,[42],46.5 µM (inactive)
same,GI50,[43],31.4 µM (inactive)
same,GI50,[44],57.4 µM (inactive)
same,GI50,[45],23.5 µM (inactive)
same,GI50,[46],18.3 µM (inactive)
same,GI50,[47],> 100 µM (inactive)
same,GI50,[48],29.1 µM (inactive)
same,GI50,[49],> 100 µM (inactive)
same,GI50,[50],31.6 µM (inactive)
same,GI50,[51],35.9 µM (inactive)
same,GI50,[52],45.8 µM (inactive)
same,GI50,[53],45.9 µM (inactive)
same,GI50,[54],42.5 µM (inactive)
same,GI50,[55],37.6 µM (inactive)
same,GI50,[56],20.1 µM (inactive)
same,GI50,[57],26.2 µM (inactive)
